Patent publication US20250129334A1, “LINEAGE SPECIFICATION DURING STEM CELL TRANSITION” (Amniotics AB, priority 2021, published 2025)
“Also recorded” adds a separate entry of the source. Where two headings read alike, the source gives them in different places.

Key:
[1] = system: HE cells; experiment: HE subculture with metabolic regulators, flow cytometry of hematopoietic output; assay type: cell-based, human
Text: The RB9-CB1 human iPSC line (Woods, N.-B. et al. Brief report: efficient generation of hematopoietic precursors and progenitors from human pluripotent stem cell lines. Stem Cells 29, 1158-1164 (2011)) was co-cultured with mouse embryonic fibroblasts (MEFs, Millipore), passaged every six days and processed to form embryoid bodies (EBs) as described previously (Guibentif, C. et al. Single-Cell Analysis Identifies Distinct Stages of Human Endothelial to-Hematopoietic Transition. Cell Reports 19, 10-19 (2017)). The differentiation protocol used in this study was previously described (Ditadi, A. & Sturgeon, C. M. Directed differentiation of definitive hemogenic endothelium and hematopoietic progenitors from human pluripotent stem cells. Methods 101, 65-72 (2016)), however, small modifications were made to induce both primitive and definitive hematopoiesis, as indicated below and in FIG. 6, a. Newly-formed EBs were first kept in SFD medium supplemented with 1 ng/ml Activin A (on days 0-2) and 3 μM CHIR99021 (on day 2 only). At day 3, media was switched to “Day 3-SP34” medium supplemented with 1 ng/ml Activin A (on day 3 only) and 3 μM CHIR99021 (on day 3 only) until day 6. On day 6, media was replaced by “Day 6-SP34” medium, until day 8. In some experiments where indicated, to obtain a higher yield of HSC-like cells, EBs were kept until day 10: in this case, EBs were plated onto Matrigel (8 μg/cm2, Corning)-coated dishes on day 8 and kept until day 10. Media was changed every day, except on days 5 and 7. On day 8 or 10 (as indicated), EBs were singularized with 5-6 rounds of 5-minute incubations with TryPLE Express (Thermo Fisher Scientific). CD34^+ cells were selected using the human CD34 MicroBead kit (Miltenyi Biotec) and stained with CD34-FITC, CD73-PE, VECad-PerCPCy5.5, CD38-PC7, CD184-APC, CD45-AF700, CD43-APCH7, GPA-eF450, CD90-BV605 and the viability marker 7AAD in order to sort HE (CD34^+CD43^−CXCR4^−CD73^−CD90^+VECad^+), EHT (CD34^+CD43^intCXCR4^−CD73^−CD90^+VECad^+) and HSC-like (CD34^+CD43^+CD90^+CD38^−) cells, according to previously described markers (Guibentif, C. et al. Single-Cell Analysis Identifies Distinct Stages of Human Endothelial to-Hematopoietic Transition. Cell Reports 19, 10-19 (2017); Ditadi, A. et al. Human definitive haemogenic endothelium and arterial vascular endothelium represent distinct lineages. Nat Cell Biol 17, 580-591 (2015); and Choi, K.-D. et al. Identification of the Hemogenic Endothelial Progenitor and Its Direct Precursor in Human Pluripotent Stem Cell Differentiation Cultures. Cell Reports 2, 553-567 (2012)).
Sorted HE (40,000), EHT (30,000) and HSC-like (5-20,000) cells were plated onto Matrigel (16 μg/cm2, Corning)-coated 96-well flat bottom plates in HE medium with 1% penicillin-streptomycin and kept in a humidified incubator at 37° C., 5% C02, 4% 02 overnight. The following day (day 0), wells were washed twice with PBS and fresh HE medium was added, together with 2-DG (1 mM), UK5099 (10 μM), DCA (3 mM or 10 mM), TSA (60 nM), TCP (300 nM), ACSS2i (5 μM), C646 (10 μM), CP-640186 (5 μM) or Atorvastatin (0.5 μM), where indicated. Media was changed and drugs were added every 2 days and cells were kept in a humidified incubator at 37° C., 5% CO2, 20% O2 for 6-7 days. Pictures were taken using an Olympus IX70 microscope equipped with a CellSens DP72 camera and CellSens Standard 1.6 software (Olympus). For single cell subcultures, single HE cells were directly sorted with a BD FACSAriaIII onto OP9-DL1 stroma in flat-bottom 96-well plates with 120 μl OP9 medium (OptiMEM medium with Glutamax (Invitrogen) with 10% FCS, 1% penicillin-streptomycin solution (Thermo Fisher Scientific) and 1% 2-mercaptoethanol (Invitrogen)) with SCF, IL-6, IL-11, IGF1 and EPO, and with or without 10 μM UK, or 3 mM or 10 mM DCA. The cells were kept in a humidified incubator at 37° C., 5% CO2, 4% O2 and media was replaced every 4 days. […]

[2] = system: EHT cells; experiment: EHT cell subculture with metabolic regulators, flow cytometry; assay type: cell-based, human; conditions: EHT cells; day 3; 2-DG 1 mM
Text: The RB9-CB1 human iPSC line (Woods, N.-B. et al. Brief report: efficient generation of hematopoietic precursors and progenitors from human pluripotent stem cell lines. Stem Cells 29, 1158-1164 (2011)) was co-cultured with mouse embryonic fibroblasts (MEFs, Millipore), passaged every six days and processed to form embryoid bodies (EBs) as described previously (Guibentif, C. et al. Single-Cell Analysis Identifies Distinct Stages of Human Endothelial to-Hematopoietic Transition. Cell Reports 19, 10-19 (2017)). The differentiation protocol used in this study was previously described (Ditadi, A. & Sturgeon, C. M. Directed differentiation of definitive hemogenic endothelium and hematopoietic progenitors from human pluripotent stem cells. Methods 101, 65-72 (2016)), however, small modifications were made to induce both primitive and definitive hematopoiesis, as indicated below and in FIG. 6, a. Newly-formed EBs were first kept in SFD medium supplemented with 1 ng/ml Activin A (on days 0-2) and 3 μM CHIR99021 (on day 2 only). At day 3, media was switched to “Day 3-SP34” medium supplemented with 1 ng/ml Activin A (on day 3 only) and 3 μM CHIR99021 (on day 3 only) until day 6. On day 6, media was replaced by “Day 6-SP34” medium, until day 8. In some experiments where indicated, to obtain a higher yield of HSC-like cells, EBs were kept until day 10: in this case, EBs were plated onto Matrigel (8 μg/cm2, Corning)-coated dishes on day 8 and kept until day 10. Media was changed every day, except on days 5 and 7. On day 8 or 10 (as indicated), EBs were singularized with 5-6 rounds of 5-minute incubations with TryPLE Express (Thermo Fisher Scientific). […]

[3] = system: HSC-like cells; experiment: HSC-like cell subculture with metabolic regulators, flow cytometry; assay type: cell-based, human; conditions: day 3, 2-DG 1 mM
Text: The RB9-CB1 human iPSC line (Woods, N.-B. et al. Brief report: efficient generation of hematopoietic precursors and progenitors from human pluripotent stem cell lines. Stem Cells 29, 1158-1164 (2011)) was co-cultured with mouse embryonic fibroblasts (MEFs, Millipore), passaged every six days and processed to form embryoid bodies (EBs) as described previously (Guibentif, C. et al. Single-Cell Analysis Identifies Distinct Stages of Human Endothelial to-Hematopoietic Transition. Cell Reports 19, 10-19 (2017)). The differentiation protocol used in this study was previously described (Ditadi, A. & Sturgeon, C. M. Directed differentiation of definitive hemogenic endothelium and hematopoietic progenitors from human pluripotent stem cells. Methods 101, 65-72 (2016)), however, small modifications were made to induce both primitive and definitive hematopoiesis, as indicated below and in FIG. 6, a. Newly-formed EBs were first kept in SFD medium supplemented with 1 ng/ml Activin A (on days 0-2) and 3 μM CHIR99021 (on day 2 only). At day 3, media was switched to “Day 3-SP34” medium supplemented with 1 ng/ml Activin A (on day 3 only) and 3 μM CHIR99021 (on day 3 only) until day 6. On day 6, media was replaced by “Day 6-SP34” medium, until day 8. […]

[4] = system: iPSC-CD34+; experiment: NK cell cytotoxic degranulation (CD107) with or without K562 co-culture; assay type: cell-based, human; conditions: for degranulated NK cells (CD3-CD56+CD16+CD107+ cells) / increase in degranulated NK cells vs untreated control / basal degranulation: absence of K562; for degranulated NK cells (CD3-CD56+CD16+CD107+ cells) / increase in degranulated NK cells vs untreated control: DCA 10 mM, CP 2.5 μM, cholesterol 0.5x; for basal degranulation: vs ctrl; for level of degranulated NK cells when exposed to K562 cells: co-culture with K562
Text: NK cell anti-tumour activity can occur via cytotoxic degranulation. CD107 is a marker that is present in the cytotoxic vesicles of NK cells, and so is not expressed on the cell surface of inactivated NK cells. However, upon NK cell activation and degranulation, the CD107 target becomes detectable on the cell surface. Therefore, the level of CD107 detected on NK cells correlates with cytotoxic degranulation. In this assay, several exemplary metabolic regulators were used to assess cytotoxic degranulation in a co-culture assay with K562 cells (an exemplary cancer cell model). As a negative control, iPSC-CD34^+ untreated with a metabolic regulator were used, in which a basal level of 3.27% of degranulated NK cells (CD3^−CD56^+CD16^+CD107^+ cells) were observed (FIG. 16A, top panel).

[5] = system: HE, EHT and HSC-like cells; conditions: 100 μM FCCP; all cell types
Procedure: On days 3 and 6 of subculture, cells were collected after a 2-minute incubation at 37° C. with StemPro Accutase Cell Dissociation Reagent and stained with CD34-FITC, CD14-PE, CD33-PC7, CD11b-APC, CD45-AF700, CD43-APCH7, GPA-eF450, CD90-BV605 and the viability marker 7AAD and fluorescence was measured on a BD LSRII. To measure mitochondrial activity, cells were incubated with Tetramethylrhodamine ethyl ester (TMRE, 20 nM) for 30 minutes at 37° C. Negative controls were incubated with 100 μM FCCP for 30 minutes at 37° C., prior to TMRE staining. […] III and MFI levels—MFI FMO were calculated. […] III. To measure proliferation, cells were processed with the CellTrace Violet (CTV) kit according to manufacturer's instructions (10-minute incubation) and fluorescence was measured on a BD LSRFortessa. To measure EdU incorporation, HE cells were assessed on day 1 or 2 of subculture after 24 h EdU pulses, using Click-iT EdU Flow Cytometry Cell Proliferation Assay (Thermo Fisher Scientific, C10424), according to manufacturer's instructions. Flow cytometry outputs were analyzed on FlowJo Software, with initial gatings on SSC-A/FSC-A, FSC-H/FSC-A, SSC-H/SSC-A and 7-AAD to exclude doublets and dead cells in all experiments.

[6] = day 6, single agent vs control (1-AA 4 mM, TCP 300 nM, C646 10 μM, CP 5 μM, shRNAs vs shScr)

## N[C@@H]1C[C@H]1c1ccccc1 (racemic) [TCP, Tranylcypromine]
[1]
  HE-derived CD43+CD45+ (CD45+) cell population: more
  increase in CD43+GPA+ cell frequency following UK5099 treatment when LSD1 is blocked or downregulated: could not detect an increase
  myeloid differentiation (CD43+CD45+CD33+CD11b+): specifically increased myeloid differentiation

## O=CC[C@@H](O)[C@H](O)[C@H](O)CO [2-DG, 2-Deoxy-D-glucose]
[1]; day 3, 2-DG 1 mM
  CD43+GPA+ cell population: less than 50 % of the control
[1]; day 3 of subculture, 2-DG 1 mM
  CD43+ cell output from HE cells: significantly reduced
[1]; day 6, 2-DG 1 mM
  CD43+CD45+ cell population: less than 50 % of the control
[2]
  proliferation rate (CellTrace Violet): significantly reduced
[3]
  proliferation rate (CellTrace Violet): significantly reduced

## COCCNC(=O)Nc1ccc2nc(-c3cccs3)c(-c3cccs3)nc2c1 [ACSS2i]
[1]; day 6 of HE subculture, ACSS2i 5 μM with DCA 3 mM
  DCA effect on CD43+CD45+ cells under co-treatment: did not perturb the DCA effect

## CC1=NN(c2ccc(C(=O)O)cc2)C(=O)/C1=C/C1=CC=C(c2cc(C)c(C)cc2[NH+]([O-])O)C1 (stereo not shown) [C646]
[1]; [6]
  HE-derived CD43+CD45+ (CD45+) cell population: did not have an effect

## O=C(c1c2ccccc2cc2ccccc12)N1CCC(N2CCCC(C(=O)N3CCOCC3)C2)CC1 (stereo not shown) [CP]
[1]; [6]
  HE-derived CD43+CD45+ (CD45+) cell population: had the same effect as DCA
[4]
  degranulated NK cells (CD3-CD56+CD16+CD107+ cells): 18.3 % of the population
  increase in degranulated NK cells vs untreated control: more than 5 fold
  basal degranulation: higher than ctrl
  level of degranulated NK cells when exposed to K562 cells: further increased; also recorded: increased degranulation

## N#CC(C#N)=NNc1ccc(OC(F)(F)F)cc1 [FCCP, Carbonyl cyanide 4-(trifluoromethoxy)phenylhydrazone]
[5]
  TMRE signal: abrogated the TMRE signal

## CC(/C=C/C(=O)NO)=C\[C@@H](C)C(=O)c1ccc(N(C)C)cc1 [TSA, Trichostatin A]
[1]; day 3, TSA 60 nM
  emergence of CD43+ hematopoietic cells: impaired the emergence

## CC(C)c1c(C(=O)Nc2ccccc2)c(-c2ccccc2)c(-c2ccc(F)cc2)n1CC[C@@H](O)C[C@@H](O)CC(=O)O [atorvastatin]
[1]; day 3, Ato 0.5 μM with DCA 3 mM
  DCA effect on CD43+CD45+ cells under co-treatment: abrogated the effect of DCA

## CC(C)CCC[C@@H](C)[C@H]1CC[C@H]2[C@@H]3CC=C4C[C@@H](O)CC[C@]4(C)[C@H]3CC[C@]12C [cholesterol]
[4]
  degranulated NK cells (CD3-CD56+CD16+CD107+ cells): 7.47 % of the population
  increase in degranulated NK cells vs untreated control: more than 2 fold
  basal degranulation: higher than ctrl
  level of degranulated NK cells when exposed to K562 cells: further increased; also recorded: except for Cholesterol treated cells
